Source: ChEMBL document CHEMBL1697781, “Assessment of the health effects of chemicals in humans: II. Construction of an adverse effects database for QSAR modeling” (Curr Drug Discov Technol, 2004)

Tests used:
Settings in all cases: human; call rule not given here
Hepatotoxicity [1] = assay: FDA HLAED, liver enzyme composite activity
Hepatotoxicity [2] = assay: FDA HLAED, alkaline phosphatase increase
Hepatotoxicity [3] = assay: FDA HLAED, serum glutamic oxaloacetic transaminase (SGOT) increase
Hepatotoxicity [4] = assay: FDA HLAED, serum glutamic pyruvic transaminase (SGPT) increase
Hepatotoxicity [5] = assay: FDA HLAED, lactate dehydrogenase (LDH) increase
Hepatotoxicity [6] = assay: FDA HLAED, gamma-glutamyl transferase (GGT) increase
Wherever GGT Increase - Index Value is given: reference of the scale not given here.
Wherever LDH Increase - Index Value is given: reference of the scale not given here.

| SMILES | Composite Activity - Active (Hepatotoxicity [1]) | Composite Activity - Marginal (Hepatotoxicity [1]) | Composite Activity - Score (Hepatotoxicity [1]) | Alkaline Phosphatase Increase - Activity Score (Hepatotoxicity [2]) | Alkaline Phosphatase Increase - Index Value (Hepatotoxicity [2]) | Alkaline Phosphatase Increase - Number of Reports (Hepatotoxicity [2]) | SGOT Increase - Activity Score (Hepatotoxicity [3]) | SGOT Increase - Index Value (Hepatotoxicity [3]) | SGOT Increase - Number of Reports (Hepatotoxicity [3]) | SGPT Increase - Activity Score (Hepatotoxicity [4]) | SGPT Increase - Index Value (Hepatotoxicity [4]) | SGPT Increase - Number of Reports (Hepatotoxicity [4]) | LDH Increase - Activity Score (Hepatotoxicity [5]) | LDH Increase - Index Value (Hepatotoxicity [5]) | LDH Increase - Number of Reports (Hepatotoxicity [5]) | GGT Increase - Activity Score (Hepatotoxicity [6]) | GGT Increase - Index Value (Hepatotoxicity [6]) | GGT Increase - Number of Reports (Hepatotoxicity [6]) | further results |
| --- | --- | --- | --- | --- | --- | --- | --- | --- | --- | --- | --- | --- | --- | --- | --- | --- | --- | --- | --- |
| COC(=O)C1=C(C)NC(C)=C(C(=O)OCC(C)C)C1c1ccccc1[N+](=O)[O-] (configuration not stated) [NISOLDIPINE] | 0 | 0 | Inactive | Inactive | 0 | < 4 | Inactive | 3.2 | < 4 | Inactive | 1.6 | < 4 | Inactive | 0 | < 4 | Inactive | 0 | < 4 | – |
| O=C1CN(/N=C/c2ccc([N+](=O)[O-])o2)C(=O)N1 [NITROFURANTOIN] | – | – | – | Active | 32.8 | >= 4 | Active | 52 | >= 4 | Active | 27.4 | >= 4 | Active | 35.6 | >= 4 | Active | 16.4 | >= 4 | Composite Activity - Active (Hepatotoxicity [1]; Liver): 5; Composite Activity - Marginal (Hepatotoxicity [1]; Liver): 0; Composite Activity - Score (Hepatotoxicity [1]; Liver): Active |
| CNC(=C[N+](=O)[O-])NCCSCc1csc(CN(C)C)n1 [NIZATIDINE] | 0 | 1 | Inactive | Inactive | 1.4 | >= 4 | Marginally Active | 3 | >= 4 | Inactive | 2.4 | >= 4 | Inactive | 0.5 | >= 4 | Inactive | 0.8 | >= 4 | – |
| CC(Cc1ccc(O)c(O)c1)C(C)Cc1ccc(O)c(O)c1 (configuration not stated) [NORDIHYDROGUAIARETIC ACID] | 0 | 0 | Inactive | Inactive | 0 | < 4 | Inactive | 0 | < 4 | Inactive | 0 | < 4 | Inactive | 0 | < 4 | Inactive | 0 | < 4 | – |
| CCn1cc(C(=O)O)c(=O)c2cc(F)c(N3CCNCC3)cc21 [NORFLOXACIN] | – | – | – | Active | 6.3 | >= 4 | Active | 5.6 | >= 4 | Marginally Active | 3 | >= 4 | Marginally Active | 3.7 | >= 4 | Inactive | 0 | < 4 | Composite Activity - Active (Hepatotoxicity [1]; Liver): 2; Composite Activity - Marginal (Hepatotoxicity [1]; Liver): 2; Composite Activity - Score (Hepatotoxicity [1]; Liver): Active |
| CC1COc2c(N3CCN(C)CC3)c(F)cc3c(=O)c(C(=O)O)cn1c23 (configuration not stated) [OFLOXACIN] | 0 | 0 | Inactive | Inactive | 1.2 | >= 4 | Inactive | 1.9 | >= 4 | Inactive | 2.1 | >= 4 | Inactive | 1.2 | >= 4 | Inactive | 0.5 | < 4 | – |
| Cc1cc2c(s1)Nc1ccccc1N=C2N1CCN(C)CC1 [OLANZAPINE] | 3 | 1 | Active | Marginally Active | 3.7 | >= 4 | Active | 16.5 | >= 4 | Active | 15.5 | >= 4 | Inactive | 2.1 | >= 4 | Active | 9.1 | >= 4 | – |
| CN(C)CC/C=C1/c2ccccc2COc2ccc(CC(=O)O)cc21 [OLOPATADINE] | 0 | 0 | Inactive | Inactive | 0 | < 4 | Inactive | 0 | < 4 | Inactive | 0 | < 4 | Inactive | 0 | < 4 | Inactive | 0 | < 4 | – |
| O=C(O)c1cc(/N=N/c2ccc(O)c(C(=O)O)c2)ccc1O [OLSALAZINE] | 0 | 0 | Inactive | Inactive | 0.7 | < 4 | Inactive | 2.2 | < 4 | Inactive | 1.5 | < 4 | Inactive | 0.7 | < 4 | Inactive | 0 | < 4 | – |
